Results reported in patent US20230114241A1, “METHODS OF TREATING EPILEPSY USING THE SAME” (Trevena, Inc., priority 2019, published 2023).

Key:
[1] = target: T1, human sphingosine-1-phosphate receptor 1 (S1P1) (Homo sapiens, UniProt P21453); assay: Inhibition of cAMP production (HTRF cAMP HiRange), S1P1 CHO-K1 cells; type: cell-based; conditions: for Emax: CHO-K1, efficacy normalized to maximum efficacy of fingolimod, read-out: hS1P1 CAMP SPAN; for EC50: read-out: hS1P1 CAMP pEC50 (converted)
Summary of the method: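 CHO-K1 cells co-expressing human S1P1 (C-terminal ProLink tag) and EA-β-arrestin2, plated overnight; after 30 min compound incubation at 37 °C, intracellular cAMP measured by HTRF TR-FRET following 1 h at room temperature. Values normalized to fingolimod.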
Target sequence in this assay (P21453 whole entry): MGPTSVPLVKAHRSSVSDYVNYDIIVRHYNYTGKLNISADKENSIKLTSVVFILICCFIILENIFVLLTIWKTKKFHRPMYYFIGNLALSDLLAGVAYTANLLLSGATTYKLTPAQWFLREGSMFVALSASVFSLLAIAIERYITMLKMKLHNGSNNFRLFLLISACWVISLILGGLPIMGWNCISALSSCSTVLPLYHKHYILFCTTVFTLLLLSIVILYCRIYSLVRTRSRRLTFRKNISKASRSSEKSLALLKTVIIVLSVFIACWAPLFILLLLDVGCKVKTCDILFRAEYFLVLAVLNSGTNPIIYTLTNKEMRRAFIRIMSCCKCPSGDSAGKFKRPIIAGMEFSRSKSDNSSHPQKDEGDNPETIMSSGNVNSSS

[2] = target: T1, human sphingosine-1-phosphate receptor 1 (S1P1); assay: β-Arrestin2 recruitment assay (PathHunter), S1P1 CHO-K1 cells; type: cell-based; conditions: for Emax: efficacy normalized to maximum efficacy of fingolimod, read-out: hS1P1 B-arrestin2 SPAN; for EC50: β-arrestin2 recruitment, read-out: hS1P1 B-arrestin2 pEC50 (converted)
Description: Stable clonal Chinese hamster ovary K1 (CHO-K1) cells co-expressing EA-β-arrestin2 and the human sphingosine-1-phosphate receptor 1 (NM_001400, S1P1) with a C-terminal Prolink™ tag were purchased from DiscoverX corporation (Cat #: 93-0207C2).
Cell lines were cultured in AssayComplete™ Media 6 (DiscoverX Corporation, Cat #: 920018GF2) at 37° C. and 5% CO2 in a humidified CO2 and temperature-controlled incubator. To begin assay plating, cells were washed with Dulbecco's phosphate buffered saline (CellGro, Cat #: 21-031-CV) and lifted from the culturing flask by incubation (37° C., 5 min) with CellStripper (Cellgro, Cat #: 25-056-CI). […] Plated cells were incubated overnight at 37° C. and 5% CO2 in a humidified CO2 and temperature-controlled incubator.
Agonist-promoted β-arrestin2 recruitment to the sphingosine-1-phosphate 1 receptor was determined using the β-arrestin PathHunter® Detection kit (DiscoverX Corporation, Cat #: 93-0001). […] In cells that stably express these fusion proteins, stimulation with a cognate agonist results in the interaction of β-arrestin2 and the Prolink™-tagged GPCR. This allows the complementation of the two β-galactosidase fragments and results in the formation of a functional enzyme with β-galactosidase activity. […] Following a 60 minute incubation at 37° C. and 5% CO2 in a humidified CO2 and temperature-controlled incubator, the components of the β-arrestin PathHunter® Detection kit were added as per the manufacturer's instructions. After an hour incubation at room temperature, plates were analyzed by a BMG PheraStar microplate reader.
These values are normalized to fingolimod, a known agonist of the sphingosine-1-phosphate 1 receptor.
Target sequence in this assay (P21453 whole entry): as above
Target sequence in this assay (P32121 whole entry partner): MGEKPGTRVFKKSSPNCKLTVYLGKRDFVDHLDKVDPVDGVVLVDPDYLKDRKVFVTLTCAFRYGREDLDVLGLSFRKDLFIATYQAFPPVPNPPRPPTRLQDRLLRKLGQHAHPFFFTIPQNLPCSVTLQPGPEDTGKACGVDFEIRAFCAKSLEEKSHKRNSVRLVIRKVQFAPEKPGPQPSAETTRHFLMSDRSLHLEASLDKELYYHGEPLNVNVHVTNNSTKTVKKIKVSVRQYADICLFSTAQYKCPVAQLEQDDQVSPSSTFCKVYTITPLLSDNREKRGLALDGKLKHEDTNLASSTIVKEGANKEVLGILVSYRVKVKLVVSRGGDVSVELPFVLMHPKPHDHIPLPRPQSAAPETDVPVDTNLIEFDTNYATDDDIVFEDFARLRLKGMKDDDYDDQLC

[3] = inhibition of cAMP production, potency
[4] = CHO-K1, β-arrestin2 recruitment
[5] = inhibition of cAMP production, S1P1

Cc1nc(-c2ccccc2)oc1-c1cnc2c(c1)CC(=O)N2 [Compound 360, 5-(4-methyl-2-phenyl-1,3-oxazol-5-yl)-1H,2H,3H-pyrrolo[2,3-b]pyridin-2-one]
Emax ([1]; inhibition of cAMP production): < 75%
EC50 [1, 3]: > 0.316 µM
Emax [2, 4]: < 75%
EC50 ([2]; potency): > 10 µM

COc1ccccc1-c1csc(-c2ccc3c(ccn3C(C)C)n2)n1 [Compound 411, 2-(1-isopropyl-1H-pyrrolo[3,2-b]pyridin-5-yl)-4-(2-methoxyphenyl)thiazole]
Emax [1]: < 75%
EC50 [1, 5]: > 0.316 µM
Emax ([2]; CHO-K1): < 75%
EC50 ([2]; S1P1): > 10 µM

Cc1ccc(-c2noc(-c3ccc4c(c3)nnn4C3CCCC3)n2)cc1 [Compound 164, 1-cyclopentyl-5-[3-(4-methylphenyl)-1,2,4-oxadiazol-5-yl]-1H-1,2,3-benzotriazole]
Emax ([1]; inhibition of cAMP production): < 75%
EC50 [1, 3]: > 0.316 µM
Emax [2, 4]: < 75%
EC50 ([2]; potency): > 10 µM

CCC1(CC)CC(=O)c2cc(-c3nc(-c4ccc(NS(C)(=O)=O)cc4OC)no3)ccc2O1 [Compound 568, N-{4-[5-(2,2-diethyl-4-oxo-3,4-dihydro-2H-1-benzopyran-6-yl)-1,2,4-oxadiazol-3-yl]-3-methoxyphenyl}methane-sulfonamide]
Emax [1]: > 75%
EC50 [1, 5]: < 0.316 µM
Emax ([2]; CHO-K1): > 75%
EC50 ([2]; S1P1): < 10 µM

CCC1(CC)CC(=O)c2cc(-c3nc(-c4ccc(C)nc4)no3)ccc2O1 [Compound 550, 2,2-diethyl-6-(3-(6-methylpyridin-3-yl)-1,2,4-oxadiazol-5-yl)chroman-4-one]
Emax [1]: > 75%
EC50 [1, 5]: > 0.316 µM
Emax ([2]; CHO-K1): < 75%
EC50 ([2]; S1P1): < 10 µM

CCC1(CC)CC(=O)c2cc(-c3nc(-c4cccc(Cl)c4)no3)ccc2O1 [Compound 261, 6-[3-(3-chlorophenyl)-1,2,4-oxadiazol-5-yl]-2,2-diethyl-chroman-4-one]
Emax ([1]; inhibition of cAMP production): > 75%
EC50 [1, 3]: > 0.316 µM
Emax [2, 4]: < 75%
EC50 ([2]; potency): < 10 µM

COc1ccccc1-c1nnc(-c2ccc3[nH]oc(=O)c3c2)o1 [Compound 339, 5-[5-(2-methoxyphenyl)-1,3,4-oxadiazol-2-yl]-1,3-dihydro-2,1-benzoxazol-3-one]
Emax ([1]; inhibition of cAMP production): < 75%
EC50 [1, 3]: > 0.316 µM
Emax [2, 4]: < 75%
EC50 ([2]; potency): > 10 µM

CC(C)(CO)Cn1nnc2cc(-c3noc(-c4cnccc4C(F)(F)F)n3)ccc21 [Compound 529, 2,2-dimethyl-3-(5-(5-(4-(trifluoro-methyl)pyridin-3-yl)-1,2,4-oxadiazol-3-yl)-1H-benzo[d][1,2,3]triazol-1-yl)propan-1-ol]
Emax [1]: > 75%
EC50 [1, 5]: > 0.316 µM
Emax ([2]; CHO-K1): < 75%
EC50 ([2]; S1P1): < 10 µM

CCC1(CC)CC(=O)c2cc(-c3nc(-c4ccncc4F)no3)ccc2O1 [Compound 226, 2,2-diethyl-6-(3-(3-fluoropyridin-4-yl)-1,2,4-oxadiazol-5-yl)chroman-4-one]
Emax ([1]; inhibition of cAMP production): > 75%
EC50 [1, 3]: > 0.316 µM
Emax [2, 4]: > 75%
EC50 ([2]; potency): > 10 µM

N#Cc1cc(-c2nnc(-c3ccc4[nH]c(=O)oc4c3)o2)ccc1NCC(F)F [Compound 488, 2-[(2,2-difluoro-ethyl)amino]-5-[5-(2-oxo-2,3-dihydro-1,3-benzoxazol-6-yl)-1,3,4-oxadiazol-2-yl]benzonitrile]
Emax [1]: < 75%
EC50 [1, 5]: < 0.316 µM
Emax ([2]; CHO-K1): > 75%
EC50 ([2]; S1P1): < 10 µM

Brc1ccccc1-c1nc(-c2ccc3c(c2)nnn3Cc2ccccc2)no1 [Compound 52, 3-(1-benzyl-1H-benzo[d][1,2,3]triazol-5-yl)-5-(2-bromophenyl)-1,2,4-oxadiazole]
Emax ([1]; inhibition of cAMP production): < 75%
EC50 [1, 3]: > 0.316 µM
Emax [2, 4]: < 75%
EC50 ([2]; potency): > 10 µM

CCC1(CC)CC(=O)c2cc(-c3nc(-c4cccc(O)c4)no3)ccc2O1 [Compound 227, 2,2-diethyl-6-[3-(3-hydroxyphenyl)-1,2,4-oxadiazol-5-yl]chroman-4-one]
Emax ([1]; inhibition of cAMP production): < 75%
EC50 [1, 3]: < 0.316 µM
Emax [2, 4]: > 75%
EC50 ([2]; potency): > 10 µM

Cc1ccccc1C(C)c1noc(-c2ccc3c(c2)nnn3CC(C)C)n1 (stereo not shown) [Compound 154, 5-{3-[1-(2-methyl-phenyl)ethyl]-1,2,4-oxadiazol-5-yl}-1-(2-methylpropyl)-1H-1,2,3-benzotriazole]
Emax ([1]; inhibition of cAMP production): < 75%
EC50 [1, 3]: > 0.316 µM
Emax [2, 4]: < 75%
EC50 ([2]; potency): > 10 µM

CCC1(CC)CC(=O)c2cc(-c3nc(-c4ccnc(NC(C)=O)c4)no3)ccc2O1 [Compound 512, N-(4-(5-(2,2-diethyl-4-oxochroman-6-yl)-1,2,4-oxadiazol-3-yl)pyridin-2-yl)acetamide]
Emax [1]: > 75%
EC50 [1, 5]: < 0.316 µM
Emax ([2]; CHO-K1): < 75%
EC50 ([2]; S1P1): < 10 µM

CC(C)n1ccc2cc(-c3noc(-c4ccccc4C(F)(F)F)n3)ccc21 [Compound 390, 3-(1-isopropyl-1H-indol-5-yl)-5-(2-(trifluoromethyl)phenyl)-1,2,4-oxadiazole]
Emax [1]: > 75%
EC50 [1, 5]: < 0.316 µM
Emax ([2]; CHO-K1): < 75%
EC50 ([2]; S1P1): < 10 µM

CCC1(CC)CC(=O)c2cc(-c3nc(-c4cccnc4C)no3)ccc2O1 [Compound 564, 2,2-diethyl-6-(3-(2-methylpyridin-3-yl)-1,2,4-oxadiazol-5-yl)chroman-4-one]
Emax [1]: > 75%
EC50 [1, 5]: < 0.316 µM
Emax ([2]; CHO-K1): > 75%
EC50 ([2]; S1P1): < 10 µM

CCC1(CC)CC(=O)c2cc(-c3nc(-c4ccc[nH]4)no3)ccc2O1 [Compound 464, 6-(3-(1H-pyrrol-2-yl)-1,2,4-oxadiazol-5-yl)-2,2-diethylchroman-4-one]
Emax [1]: < 75%
EC50 [1, 5]: < 0.316 µM
Emax ([2]; CHO-K1): < 75%
EC50 ([2]; S1P1): > 10 µM

Cc1ccccc1-c1noc(-c2ccc3c(c2)CCC(=O)N3)n1 [Compound 365, 6-[3-(2-methylphenyl)-1,2,4-oxadiazol-5-yl]-1,2,3,4-tetrahydroquinolin-2-one]
Emax ([1]; inhibition of cAMP production): > 75%
EC50 [1, 3]: > 0.316 µM
Emax [2, 4]: < 75%
EC50 ([2]; potency): < 10 µM

CCC1(CC)CC(=O)c2cc(-c3nc(-c4ccc5[nH]c(=O)[nH]c5c4)no3)ccc2O1 [Compound 539, 5-(5-(2,2-diethyl-4-oxochroman-6-yl)-1,2,4-oxadiazol-3-yl)-1H-benzo[d]imidazol-2(3H)-one]
Emax [1]: < 75%
EC50 [1, 5]: < 0.316 µM
Emax ([2]; CHO-K1): < 75%
EC50 ([2]; S1P1): < 10 µM

CC(C)n1nnc2cc(-c3nc(-c4ccccc4O)no3)ccc21 [Compound 180, 2-(5-(1-isopropyl-1H-benzo[d][1,2,3]triazol-5-yl)-1,2,4-oxadiazol-3-yl)phenol]
Emax ([1]; inhibition of cAMP production): > 75%
EC50 [1, 3]: > 0.316 µM
Emax [2, 4]: > 75%
EC50 ([2]; potency): > 10 µM

Cn1cnc2ccc(-c3nnc(-c4ccc(NCC(F)(F)CO)c(C#N)c4)o3)cc21 [Compound 635, 2-[(2,2-difluoro-3-hydroxypropyl)amino]-5-[5-(1-methyl-1H-1,3-benzodiazol-6-yl)-1,3,4-oxadiazol-2-yl]benzonitrile]
Emax [1]: < 75%
EC50 [1, 5]: < 0.316 µM
Emax ([2]; CHO-K1): < 75%
EC50 ([2]; S1P1): < 10 µM

Cc1ccncc1-c1noc(-c2ccc3ccsc3n2)n1 [Compound 376, 4-methyl-3-(5-{thieno[2,3-b]pyridin-6-yl}-1,2,4-oxadiazol-3-yl)pyridine]
Emax [1]: < 75%
EC50 [1, 5]: > 0.316 µM
Emax ([2]; CHO-K1): < 75%
EC50 ([2]; S1P1): > 10 µM

CC(C)n1nnc2cc(-c3nc(-c4ccc5nonc5c4)no3)ccc21 [Compound 498, 5-{5-[1-(propan-2-yl)-1H-1,2,3-benzotriazol-5-yl]-1,2,4-oxadiazol-3-yl}-2,1,3-benzoxadiazole]
Emax [1]: > 75%
EC50 [1, 5]: < 0.316 µM
Emax ([2]; CHO-K1): < 75%
EC50 ([2]; S1P1): > 10 µM

CC(C)n1nnc2cc(-c3noc(-c4ccccc4C(F)(F)F)n3)ccc21 [Compound 33, 3-(1-isopropyl-benzotriazol-5-yl)-5-[2-(trifluoromethyl)phenyl]-1,2,4-oxadiazole]
Emax ([1]; inhibition of cAMP production): > 75%
EC50 [1, 3]: < 0.316 µM
Emax [2, 4]: > 75%
EC50 ([2]; potency): < 10 µM

N#Cc1cc(-c2nnc(-c3ccc4[nH]c(=O)oc4c3)o2)ccc1NCCF [Compound 487, 2-[(2-fluoroethyl)amino]-5-[5-(2-oxo-2,3-dihydro-1,3-benzoxazol-6-yl)-1,3,4-oxadiazol-2-yl]benzonitrile]
Emax [1]: > 75%
EC50 [1, 5]: > 0.316 µM
Emax ([2]; CHO-K1): > 75%
EC50 ([2]; S1P1): < 10 µM
